# Laboratory results from patent publication US20160296646A1, “ALKYLPHOSPHOCHOLINE ANALOGS FOR MULTIPLE MYELOMA IMAGING AND THERAPY” (Wisconsin Alumni Research Foundation, priority 2015, published 2016).
# Columns and labels:
# [1] = system: NCIH929 multiple myeloma cell line; assay: Uptake of fluorescent analogs in NCIH929 cells (optical imaging); format: cell-based; conditions: fluorescence imaging
# Description: (§1) FIG. 5 includes optical images showing uptake of CLR1501 in two additional multiple myeloma cell lines (top row, U266; bottom row, H929). […] 20× magnification.
# (§2) FIG. 7 includes optical images showing uptake of CLR1502 in two additional multiple myeloma cell lines (top row, U266; bottom row, H929). […] 20× magnification.
# [2] = system: U266 multiple myeloma cell line; assay: Uptake of fluorescent analogs in U266 cells (optical imaging); format: cell-based; conditions: fluorescence imaging
# Description: as §1, §2
# [3] = system: peripheral blood mononuclear cells (PBMCs) isolated from normal human blood; assay: Uptake in normal peripheral blood mononuclear cells; format: cell-based; conditions: compared to MM1.S cells
# Protocol: FIG. 8 includes optical images showing uptake of CLR1502 in cells co-incubated with Hoechst 33452 (blue nuclear) stain. […] 20× magnification.
# (§3) Uptake of CLR1501 and 1502 was assessed using peripheral blood mononuclear cells (PBMCs) isolated from normal human blood.
# [4] = system: MM.1S multiple myeloma cell line; assay: Uptake of fluorescent analogs in MM.1S cells (optical imaging); format: cell-based; conditions: for uptake: MM.1S cells, fluorescence imaging
# Description: (§4) FIG. 4 includes optical images showing uptake of CLR1501 in three different multiple myeloma cell lines (top row, MM.1S; middle row, MM.1R; bottom row, RPM18226). […] 20× magnification.
# (§5) FIG. 6 includes optical images showing uptake of CLR1502 in three different multiple myeloma cell lines (top row, MM1S; middle row, MM.1R; bottom row, RPM18226). […] 20× magnification.
# [5] = system: CD138+ multiple myeloma tumor cells; assay: Uptake in CD138+ tumor cells isolated from patient bone marrow aspirate; format: cell-based, human
# Description: (§6) Bone marrow aspirate samples were taken from fifteen different patients diagnosed with multiple myeloma.
# (§7) Uptake of both CLR1501 and CLR1502 was quantified by measuring fluorescence intensity for CD138^+ multiple myeloma tumor cells, CD14^+ monocyte/macrophage cells, and CD138^−/CD14^− cells isolated from bone marrow aspitrates from multiple myeloma patients.
# [6] = system: CD14+ monocyte/macrophage cells from normal human blood; assay: Uptake in CD14+ monocyte/macrophage cells among normal PBMCs; format: cell-based
# Protocol: as §3
# [7] = system: CD14+ monocyte/macrophage cells; assay: Uptake in CD14+ monocyte/macrophage cells isolated from patient bone marrow aspirate; format: cell-based, human
# Description: as §6, §7
# [8] = system: MM.1R multiple myeloma cell line; assay: Uptake of fluorescent analogs in MM.1R cells (optical imaging); format: cell-based; conditions: fluorescence imaging
# Description: as §4, §5
# [9] = system: RPM18226 multiple myeloma cell line; assay: Uptake of fluorescent analogs in RPM18226 cells (optical imaging); format: cell-based; conditions: fluorescence imaging
# Description: as §4, §5
# [10] = system: CD138-/CD14- cells (other mononuclear cells); assay: Uptake in CD138-/CD14- cells isolated from patient bone marrow aspirate; format: cell-based, human
# Description: as §6, §7
# [11] = system: MM.1s multiple myeloma cells; assay: Bioactivity of [131I]-CLR1404: live fraction of MM.1s cells after exposure; format: cell-based; conditions: 48 hour exposure, control 96%
# Protocol: MM.1s multiple myeloma cells were exposed to two different concentrations of [^131I]-CLR1404 (0.082 μCi and 0.91 μCi) for a 48 hour period, as well as to a control containing no [^131I]-CLR1404. Bioactivity for each group was determined by determining the percentage of cells that remained alive after the exposure period (live fraction).
# [12] = CD138+ cells from bone marrow aspirates of fifteen multiple myeloma patients
# [13] = CD14+ cells from patient bone marrow aspirates
# [14] = CD138- cells from the same patient samples (except CD14+ cells)
compound,measurement,setting,value
C[N+](C)(C)CCOP(=O)([O-])OCCCCCCCCCCCCCCCCCCc1ccc(C2=C3C=CC=[N+]3[B-](F)(F)n3cccc32)cc1 [CLR1501],uptake,[1],high uptake
same,uptake,[2],high uptake
same,uptake,[3],minimal to no uptake
same,uptake,[4],strong uptake
same,localization of uptake within cells,"[4]; MM.1S, MM.1R, RPM18226 cells co-incubated with lipid raft stain",localized to the lipid rafts
same,uptake,[5]; [12],high uptake
same,uptake,"[5]; patient A, CD138+ cells",taken up
same,uptake,[6],did exhibit uptake
same,uptake,[7]; [13],did take up the analogs
same,uptake,"[7]; patient A, CD14+ cells",taken up
same,uptake,[8],strong uptake
same,uptake,[9],strong uptake
same,uptake,[10]; [14],very minimal to no uptake
same,uptake,"[10]; patient A, CD138-/CD14- cells",no detectable uptake
same,uptake,"[10]; patient B, CD138-/CD14- cells co-incubated with Hoechst 33452",minimal CLR1501 uptake
CN1C(=CC=C2CCCC(C=CC3=[N+](C)c4ccccc4C3(C)C)=C2c2ccc(CCCCCCCCCCCCCCCCCCOP(=O)(O)OCC[N+](C)(C)C)cc2)C(C)(C)c2ccccc21 [CLR1502],uptake,[1],high uptake
same,uptake,[2],high uptake
same,uptake,[3],minimal to no uptake
same,uptake,[4],high uptake
same,uptake,[5]; [12],high uptake
same,uptake in CD138+ tumor cells relative to CD14 monocyte/macrophage cells (fluorescence intensity),"[5]; patient G, same patient",threefold greater
same,uptake in CD138+ tumor cells relative to CD138-/CD14- cells (fluorescence intensity),"[5]; patient G, same patient",about fifteen fold greater
same,uptake,[6],did exhibit uptake
same,uptake,[7]; [13],did take up the analogs
same,uptake,[8],high uptake
same,uptake,[9],high uptake
same,uptake,[10]; [14],very minimal to no uptake
same,uptake,"[10]; patient D, CD138-/CD14- cells",minimal uptake
C[N+](C)(C)CCOP(=O)([O-])OCCCCCCCCCCCCCCCCCCc1ccc([131I])cc1 [[^131I]-CLR1404],live fraction,[11]; 0.082 μCi,71%
same,live fraction,[11]; 0.91 μCi,0%
